The text below walks through data of ChEMBL document CHEMBL5032536, “Synthesis and Cytotoxic Activity of Lepidilines A-D: Comparison with Some 4,5-Diphenyl Analogues and Related Imidazole-2-thiones” (J Nat Prod, 2021).

A value given as a limit tells only on which side of the number the result lay.

Data set [1] is described as follows: Selectivity ratio of IC50 for cytotoxicity against HUVEC cells to IC50 for cytotoxicity against human HL-60 cells. It counts as toxicity, cell-based. The following applies: HUVEC cells versus HL-60 cells, read-out: Ratio IC50.
Data set [2] can be described thus: Selectivity ratio of IC50 for cytotoxicity against human MCF7 cells to IC50 for cytotoxicity against human HL-60 cells. It counts as toxicity, cell-based. The following applies: MCF7 cells versus HL-60 cells, read-out: Ratio IC50.

On to `COc1cccc(Cn2c(C)c(C)[n+](Cc3ccccc3)c2C)c1`, for which the selectivity ratio in data set [1] and in data set [2] was more than 100 throughout.
